Values quoted from earlier work in US20020051751A1, “Pharmaceuticals and apparatus providing diagnosis and selective tissue necrosis” (priority 1985, published 2002).

Tested on: DNA

Substance: Bleomycin
- binding constant of Bleomycin to DNA: 10^6
- Bleomycin molecules bound per nucleotides (results from Kd of 10^6): one Bleomycin molecule bound per eight nucleotides
